Laboratory results as given in PubChem BioAssay AID1918993 (Molecular Pharmacology Branch, DTP, NCI, 2023).
Each block holds one molecule with its values, some of them ahead of it.

Test system: 233499-124-R-J3-PDC complex spheroid growth
Assay: Anticancer human tumor 233499-124-R-J3-PDC patient-derived colon adenocarcinoma cell line growth inhibition [AhR]
Settings: for IC50: curve of first compound; for viability, T/C: stronger effect = lower value
Summary of the method: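 Agents were dosed in half-log steps down from roughly clinical Cmax, or from 10 microM where Cmax was unknown, alone and with AhR antagonists. Read-out: percent test/control growth of tumor spheroids containing HUVEC and MSC stromal cells.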

[1] = second compound 0.1 µM, first compound 0.0316 µM
[2] = second compound 0.1 µM, first compound 0.1 µM
[3] = second compound 0.1 µM, first compound 0.316 µM
[4] = second compound 0.1 µM, first compound 1 µM
[5] = second compound 0.1 µM, first compound 3.16 µM
[6] = second compound 0.1 µM, first compound 10 µM
[7] = second compound 0.316 µM, first compound 0.0316 µM
[8] = second compound 0.316 µM, first compound 0.1 µM
[9] = second compound 0.316 µM, first compound 0.316 µM
[10] = second compound 0.316 µM, first compound 1 µM
[11] = second compound 0.316 µM, first compound 3.16 µM
[12] = second compound 0.316 µM, first compound 10 µM
[13] = second compound 1 µM, first compound 0.0316 µM
[14] = second compound 1 µM, first compound 0.1 µM
[15] = second compound 1 µM, first compound 0.316 µM
[16] = second compound 1 µM, first compound 1 µM
[17] = second compound 1 µM, first compound 3.16 µM
[18] = second compound 1 µM, first compound 10 µM
[19] = second compound 3.16 µM, first compound 0.0316 µM
[20] = second compound 3.16 µM, first compound 0.1 µM
[21] = second compound 3.16 µM, first compound 0.316 µM
[22] = second compound 3.16 µM, first compound 1 µM
[23] = second compound 3.16 µM, first compound 3.16 µM
[24] = second compound 3.16 µM, first compound 10 µM
[25] = second compound 10 µM, first compound 0.0316 µM
[26] = second compound 10 µM, first compound 0.1 µM
[27] = second compound 10 µM, first compound 0.316 µM
[28] = second compound 10 µM, first compound 1 µM
[29] = second compound 10 µM, first compound 3.16 µM
[30] = second compound 10 µM, first compound 10 µM
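Further: spheroids exposed to agents for seven days before reading.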

IC50 (second compound 0.1 µM): > 10 µM
IC50 (second compound 0.316 µM): 0.282 µM
IC50 (second compound 1 µM): > 10 µM
IC50 (second compound 3.16 µM): > 10 µM
IC50 (second compound 10 µM): > 10 µM
SMILES: Nc1ccn(C2OC(CO)C(O)C2(F)F)c(=O)n1 (stereo not given) + Cc1ccccc1N=Nc1ccc(NC(=O)c2ccnn2C)c(C)c1
viability, T/C [1]: 103%
viability, T/C [2]: 93.1%
viability, T/C [3]: 69.5%
viability, T/C [4]: 56.9%
viability, T/C [5]: 65.7%
viability, T/C [6]: 64.6%
viability, T/C [7]: 91.2%
viability, T/C [8]: 101%
viability, T/C [9]: 42.1%
viability, T/C [10]: 39.1%
viability, T/C [11]: 41%
viability, T/C [12]: 57%
viability, T/C [13]: 95.5%
viability, T/C [14]: 93.7%
viability, T/C [15]: 62.8%
viability, T/C [16]: 47.4%
viability, T/C [17]: 59.6%
viability, T/C [18]: 53.6%
viability, T/C [19]: 84.5%
viability, T/C [20]: 81.3%
viability, T/C [21]: 65.9%
viability, T/C [22]: 55.8%
viability, T/C [23]: 65.8%
viability, T/C [24]: 68.7%
viability, T/C [25]: 94%
viability, T/C [26]: 111%
viability, T/C [27]: 93.5%
viability, T/C [28]: 87.8%
viability, T/C [29]: 71.2%
viability, T/C [30]: 76.5%

IC50 (second compound 0.1 µM): 6.62 µM
IC50 (second compound 0.316 µM): 5.96 µM
IC50 (second compound 1 µM): 6.36 µM
IC50 (second compound 3.16 µM): 5.56 µM
IC50 (second compound 10 µM): 4.22 µM
SMILES: O=C(C=Cc1cccc(S(=O)(=O)Nc2ccccc2)c1)NO + Cc1ccccc1N=Nc1ccc(NC(=O)c2ccnn2C)c(C)c1
viability, T/C [1]: 98.3%
viability, T/C [2]: 97.5%
viability, T/C [3]: 110%
viability, T/C [4]: 139%
viability, T/C [5]: 127%
viability, T/C [6]: 14%
viability, T/C [7]: 95.2%
viability, T/C [8]: 103%
viability, T/C [9]: 127%
viability, T/C [10]: 126%
viability, T/C [11]: 104%
viability, T/C [12]: 5.9%
viability, T/C [13]: 110%
viability, T/C [14]: 102%
viability, T/C [15]: 116%
viability, T/C [16]: 126%
viability, T/C [17]: 111%
viability, T/C [18]: 10.7%
viability, T/C [19]: 102%
viability, T/C [20]: 102%
viability, T/C [21]: 105%
viability, T/C [22]: 129%
viability, T/C [23]: 89.6%
viability, T/C [24]: 9.1%
viability, T/C [25]: 94.4%
viability, T/C [26]: 101%
viability, T/C [27]: 98.5%
viability, T/C [28]: 94.1%
viability, T/C [29]: 65.4%
viability, T/C [30]: 3.82%

IC50 (second compound 0.1 µM): > 10 µM
IC50 (second compound 0.316 µM): > 10 µM
IC50 (second compound 1 µM): > 10 µM
IC50 (second compound 3.16 µM): > 10 µM
IC50 (second compound 10 µM): > 10 µM
SMILES: O=C(c1cc(Cc2n[nH]c(=O)c3ccccc23)ccc1F)N1CCN(C(=O)C2CC2)CC1 + Cc1ccccc1N=Nc1ccc(NC(=O)c2ccnn2C)c(C)c1
viability, T/C [1]: 106%
viability, T/C [2]: 109%
viability, T/C [3]: 89%
viability, T/C [4]: 117%
viability, T/C [5]: 114%
viability, T/C [6]: 112%
viability, T/C [7]: 106%
viability, T/C [8]: 99.9%
viability, T/C [9]: 89.6%
viability, T/C [10]: 93.5%
viability, T/C [11]: 92.7%
viability, T/C [12]: 106%
viability, T/C [13]: 99.7%
viability, T/C [14]: 106%
viability, T/C [15]: 98.1%
viability, T/C [16]: 106%
viability, T/C [17]: 110%
viability, T/C [18]: 111%
viability, T/C [19]: 100%
viability, T/C [20]: 106%
viability, T/C [21]: 92.8%
viability, T/C [22]: 100%
viability, T/C [23]: 89.3%
viability, T/C [24]: 92.8%
viability, T/C [25]: 106%
viability, T/C [26]: 107%
viability, T/C [27]: 110%
viability, T/C [28]: 111%
viability, T/C [29]: 98.9%
viability, T/C [30]: 101%
